Assay results taken from patent publication US20120035244A1, “PARP1 TARGETED THERAPY” (THE REGENTS OF THE UNIVERSITY OF MICHIGAN, priority 2010, published 2012).
“Also recorded” adds a separate entry of the source.

Assays:
[1] = system: MDA-PCa-2b-T (ETV1 positive); assay: Human prostate cancer tissue xenograft (primagraft) MDA-PCa-2b-T; assay type: in vivo, mice; details: 40 mg/kg Olaparib, P<0.01 (day 8, 12 and 16)
Method: (§1) Human prostate cancer specimens MDA-PCa 2b-T (ETV1 positive), MDA-PCa-133 (ERG positive) and MDA PCa 118b (ETS-negative) were obtained (Li, Z. G., et al. The Journal of clinical investigation 118, 2697-2710 (2008)). Each xenografted tumor tissue was aseptically harvested from the host mice. New recipient mice were anesthetized by injecting […] intraperitoneally for chemical restraint before tumor implantation. About 0.5 cm^3 size of the excised tumor tissue was directly implanted into subcutaneous pockets of 6- to 8-week-old male CB17 SCID mice (Charles River Laboratories) in a laminar flow sterile hood. Sub-cutaneous pocket was carefully closed by applying 1 or 2 wound clips. All mice were monitored for 24 hours after implantation procedure for any apparent physiologic disturbances or missing wound clips. Olaparib (40 mg/Kg body weight) treatment was started after 72 hours. […] Body weight was also monitored weekly during the course of the study.

[2] = system: MDA-PCa-118b (ETS negative); assay: Human prostate cancer tissue xenograft (primagraft) MDA-PCa-118b; assay type: in vivo, mice; details: 40 mg/kg Olaparib
Method: as §1

PC3 = assay: Basement membrane matrix invasion assay, PC3 cells; assay type: cell-based, human
[3] = Body weight of xenografted mice; assay type: in vivo; details: xenograft and primagraft models, Olaparib treatment
Method: Olaparib was obtained from Axon Medchem (Groningen, The Netherlands).
as §1

[4] = Fong et al., N Engl J Med 361, 123-134 (2009); cited from earlier work
BRCA2 shRNA PC3 cells = assay: Neutral COMET assay, BRCA2 shRNA PC3 cells; assay type: cell-based, human; details: P=0.14 and P=0.003, two-way ANOVA
Method: VCaP, PC3, PrEC or RWPE cells were seeded at 250,000 cells/mL in a 6-well plate 24 hours prior to treatment with siRNA, drug or vehicle control. After 48 hours, cells were trypsinized, harvest by centrifugation and re-suspend in PBS. Cell counts were then normalized to 1×10^5 cells/mL. Suspended cells (25 μL) were then mixed with 250 μL 1.0% ultrapure low melting point agarose (Invitrogen) made in 1× Tris-Borate buffer. The agarose-cell mixture was then dropped onto slides allowed to solidify at 4° C. in the dark for 20 minutes before immersion in COMET assay lysis solution (Trevigen, Gaithersburg, Md.) at 4° in the dark for 45 minutes. Excess buffer was then removed and slides were submerged in freshly prepared neutral solution (Tris Base 60.57 g, Sodium Acetate 204.12 g, dissolve in 450 ml of dH2O, adjust to pH=9.0 with glacial acetic acid) at room temperature in the dark for 40 minutes. Slides were then washed twice by immersing in 1×TBE buffer prior to neutral electrophoresis at 20 volts for 30 minutes. Slides were then fixed in 70% ethanol for 5 minutes. […] COMET tail moments were then assessed using COMETscore.v1.5 (AutoCOMET.com, Sumerduck, Va.) image processing software as described by the manufacturer with greater than 100 cells analyzed in triplicate experiments.

[5] = system: RWPE cells overexpressing SLC45A3-BRAF; assay: Basement membrane matrix invasion assay, RWPE-SLC45A3-BRAF cells; assay type: cell-based, human
Method: For invasion assays, the prostate cell lines RWPE-1 and VCaP were transfected with siRNA or negative controls as indicated. NU7026 (Sigma) and NU1025 (Calbiochem) were dissolved in DMSO and stored at −20° C. in the dark. Forty-eight hours post-transfection/transduction, cells were seeded onto the basement membrane matrix (EC matrix, Chemicon, Temecula, Calif.) in the chamber insert with […] pores of a 24-well culture plate in serum free media. Cells were attracted to the lower chamber by the addition of complete media as a chemoattractant. After 48 hours incubation at 37° C. with 5% CO2, the non-invading cells and EC matrix were gently removed with a cotton swab. Invasive cells, which were located on the lower side of the membrane, were stained with crystal violet, air dried and photographed. To quantify the relative number of invaded cells, colorimetric assays were performed by treating the inserts with 150 μl of 10% acetic acid (v/v) and measuring absorbance of each condition at 560 nm using a spectrophotometer (GE Healthcare).

LNCaP = assay: CAM liver metastasis assay, LNCaP; assay type: in vivo, chicken embryo; details: LNCaP (ETS positive), eggs treated every other day with Olaparib, P=0.1
Method: (§2) The CAM assay was performed as described previously (Zijlstra, A., et al., Cancer research 62, 7083-7092 (2002)). Briefly, fertilized eggs were incubated in a rotary humidified incubator at 38° C. with for 10 days. After releasing the CAM by applying mild amount of low pressure to the hole over the air sac and cutting a square 1-cm^2 window encompassing a second hole near the allantoic vein, cultured human cells that had been pre-treated with siRNA as indicated were detached by trypsinization and re-suspended in complete medium prior to implantation of 2×10^6 cells adjacent to the mesenchyme in each egg. The windows were subsequently, sealed and the eggs were returned to a stationary incubator. Cells were then treated as indicated with 40 mg/kg body weight Olaparib which was administered on day 13, 15 and 17. Day 18 embryos were sacrificed. Tumors were then excised and weighed. […] After incubation of either the metastasis or intravasation assays, the extra-embryonic tumor and CAM, as well as the embryonic liver were harvested and analyzed for the presence of tumor cells by quantitative human alu-specific PCR. […] Quantification of human cells in the extracted DNA was done as described^14. Fluorogenic TaqMan qPCR probes were applied as above, and DNA copy numbers were quantified.

RWPE-ERG cells = assay: Chicken chorioallantoic membrane (CAM) intravasation assay, RWPE-ERG cells; assay type: in vivo, chicken embryo; details: lower CAM three days after implantation, 40 mg/kg Olaparib, P<0.1
Method: as §2

T-ALL cell lines = assay: T-ALL cell lines: neutral COMET assays and soft agar colony formation; assay type: cell-based; details: with or without 10 μM Olaparib for 48 hours (COMET); soft agar colony formation
Method: The effect of PARP1 inhibitors on T-ALL cell lines was assayed using Western blot analysis of several T-ALL cell lines comparing total ERG expression levels. In addition, neutral COMET assays were performed on a panel of T-ALL cell lines. RWPE was used as an ETS negative control and VCaP cells were used for comparison to an ETS positive model. Cells were treated with or without 10 μM Olaparib for 48 hours as indicated. Soft agar colony formation was performed on cells treated with or without Olaparib as indicated. All experiments were run in triplicate. Error bars are standard error of the mean.

For `O=C(c1cc(Cc2n[nH]c(=O)c3ccccc23)ccc1F)N1CCN(C(=O)C2CC2)CC1` [Olaparib, 4-[3-(4-Cyclopropanecarbonylpiperazine-1-carbonyl)-4-fluorobenzyl]-2H-phthalazin-1-one], the primagraft growth [1] was “inhibited the growth”, the primagraft growth [2] was “had no effect” and the “invasion of PC3 (ETS rearrangement negative control)” value (PC3) was “does now effect invasion”. The total body weight [3] was “did not lead to a significant decrease in total body weight; also recorded: did not have an observable effect on total body weight; also recorded: does not reduce total mouse body weight”, the “tolerability in cancer patients” value [4] was “well tolerated in cancer patients with a minimal side effect profile; also recorded: well tolerated at doses capable of inhibiting PARP activity” and the “COMET tail moments versus Olaparib treated ETS overexpressing cells” value (BRCA2 shRNA PC3 cells) was “slightly larger tail moments”. For the same compound, the “invasion of RWPE SLC45A3-BRAF (negative control)” value [5] was “does now effect invasion”, the “formation of liver metastases” value (LNCaP) was “blocked the formation of liver metastases” and the ERG-mediated intravasation (RWPE-ERG cells) was “sufficient to block ERG-mediated intravasation”. For the same compound, the “sensitivity of T-ALL cell lines” value (T-ALL cell lines) was “sensitive to PARP1 inhibition; also recorded: sensitive to PARP inhibition”.
